Test results reported in patent US8546565B2, “Quinazolinamide derivatives” (Merck Patent Gesellschaft, priority 2008, dated 2013).

Molecular target: T1, Recombinant human HSP90a (Homo sapiens, UniProt P07900)
T1 construct: host or cells: E. coli
Assay: HSP90 radioligand filter binding test ([3H]17AAG competition)
Settings: [3H]17AAG 0.08 μM, HSP90 1.5 μg/assay, 22° C., 30 min; read-out: IC50 (HSP90 inhibition)
From the text: Test Method for the Measurement of HSP90 Inhibitors
The binding of geldanamycin or 17-allylamino-17-demethoxygeldanamycin (17AAG) to HSP90 and competitive inhibition thereof can be utilised in order to determine the inhibitory activity of the compounds according to the invention (Carreras et al. 2003, Chiosis et al. 2002).
In the specific case, a radioligand filter binding test is used. The radioligand used here is tritium-labelled 17-allylaminogeldanamycin, [3H]17AAG. This filter binding test allows a targeted search for inhibitors which interfere with the ATP binding site.
Recombinant human HSP90a (E. coli expressed, 95% purity);
[3H]17AAG (17-allylaminogeldanamycin, [allylamino-2,3-^3H. Specific activity: 1.11×10^12 Bq/mmol (Moravek, MT-1717);
HEPES filter buffer (50 mM HEPES, pH 7.0, 5 mM MgCl2, BSA 0.01%)
Multiscreen FB (1 μm) filter plate (Millipore, MAFBNOB 50).
The 96-well microtitre filter plates are firstly irrigated and coated with 0.1% of polyethylenimine.
The test is carried out under the following conditions:
Reaction temperature 22° C.
Reaction time: 30 min., shaking at 800 rpm
50 mM HEPES HCl, pH 7.0, 5 mM MgCl2, 0.01% (w/v) of BSA
At the end of the reaction, the supernatant in the filter plate is removed by suction with the aid of a vacuum manifold (Multiscreen Separation System, Millipore), and the filter is washed twice.
The filter plates are then measured in a beta counter (Microbeta, Wallac) with scintillator (Microscint 20, Packard).
“% of control” is determined from the “counts per minutes” values, and the IC-50 value of a compound is calculated therefrom.

Row | SMILES | IC50 [nM]
1 | Nc1nc(C(=O)N2Cc3ccccc3C2)c2cc(-c3ccccc3C(=O)N3CCCC3C(=O)O)ccc2n1 (stereo not shown) [Compound A44, 1-{2-[2-Amino-4-(1,3-dihydroisoindole-2-carbonyl)quinazolin-6-yl]-benzoyl}pyrrolidine-2-carboxylic acid] | 10 to 1000
2 | Nc1nc(C(=O)N2Cc3ccccc3C2)c2cc(-c3ccccc3S(=O)(=O)NC3CCC3)ccc2n1 [Compound A51, 2-[2-Amino-4-(1,3-dihydroisoindole-2-carbonyl)quinazolin-6-yl]-N-cyclobutylbenzenesulfonamide] | 10 to 1000
3 | Nc1nc(C(=O)N2Cc3ccccc3C2)c2cc(-c3ccccc3S(=O)(=O)NC3CC3)ccc2n1 [Compound A52, 2-[2-Amino-4-(1,3-dihydroisoindole-2-carbonyl)quinazolin-6-yl]-N-cyclopropylbenzenesulfonamide] | 10 to 1000
4 | CN(CCOC(=O)CN)S(=O)(=O)c1ccccc1-c1ccc2nc(N)nc(C(=O)N3Cc4ccccc4C3)c2c1 [Compound A15, 2-({2-[2-amino-4-(1,3-dihydroisoindole-2-carbonyl)quinazolin-6-yl]benzenesulfonyl}methylamino)ethyl aminoacetate] | 10 to 1000
5 | CC(C)(C)NC(=O)c1ccccc1-c1ccc2nc(N)nc(C(=O)N3Cc4ccccc4C3)c2c1 [Compound A47, 2-[2-Amino-4-(1,3-dihydroisoindole-2-carbonyl)quinazolin-6-yl]-N-tert-butylbenzamide] | 10 to 1000
6 | CC(C)(C)NC(=O)c1cc(F)c(F)cc1-c1ccc2nc(N)nc(C(=O)N3Cc4ccccc4C3)c2c1 [Compound A81, 2-[2-Amino-4-(1,3-dihydroisoindole-2-carbonyl)quinazolin-6-yl]-N-tert-butyl-4,5-difluorobenzamide] | 10 to 1000
7 | Nc1nc(C(=O)N2Cc3ccccc3C2)c2cc(-c3ccccc3C(=O)N3CCC(F)(F)C3)ccc2n1 [Compound A49, {2-Amino-6-[2-(3,3-difluoropyrrolidine-1-carbonyl)phenyl]quinazolin-4-yl}-(1,3-dihydroisoindol-2-yl)methanone] | 10 to 1000
8 | CC1CCCN1C(=O)c1ccccc1-c1ccc2nc(N)nc(C(=O)N3Cc4ccccc4C3)c2c1 (stereo not shown) [Compound A42, {2-Amino-6-[2-(2-methylpyrrolidine-1-carbonyl)phenyl]quinazolin-4-yl}-(1,3-dihydroisoindol-2-yl)methanone] | 10 to 1000
9 | C[C@@H]1CCCN1C(=O)c1ccccc1-c1ccc2nc(N)nc(C(=O)N3Cc4ccccc4C3)c2c1 [Compound A63] | 10 to 1000
10 | CN(C(=O)c1ccccc1-c1ccc2nc(N)nc(C(=O)N3Cc4ccccc4C3)c2c1)C(C)(C)C [Compound A56, 2-[2-Amino-4-(1,3-dihydroisoindole-2-carbonyl)quinazolin-6-yl]-N-tert-butyl-N-methylbenzamide] | 10 to 1000
11 | Nc1nc(C(=O)N2Cc3ccccc3C2)c2cc(-c3ccccc3C(=O)N3CCC3)ccc2n1 [Compound A54] | 10 to 1000
12 | CN(C1CNC1)S(=O)(=O)c1ccccc1-c1ccc2nc(N)nc(C(=O)N3Cc4ccccc4C3)c2c1 [Compound A68] | 10 to 1000
13 | CCN(CCN(C)C)C(=O)c1ccccc1-c1ccc2nc(N)nc(C(=O)N3Cc4ccccc4C3)c2c1 [Compound A55] | 10 to 1000
14 | CCN(CCN(C)C)C(=O)c1cc(F)c(F)cc1-c1ccc2nc(N)nc(C(=O)N3Cc4ccccc4C3)c2c1 [Compound A76, 2-[2-Amino-4-(1,3-dihydroisoindole-2-carbonyl)quinazolin-6-yl]-N-(2-dimethylaminoethyl)-N-ethyl-4,5-difluorobenzamide] | 10 to 1000
15 | CCNC(=O)c1cc(F)ccc1-c1ccc2nc(N)nc(C(=O)N3Cc4ccccc4C3)c2c1 [Compound A83, 2-[2-Amino-4-(1,3-dihydroisoindole-2-carbonyl)quinazolin-6-yl]-N-ethyl-5-fluorobenzamide] | 10 to 1000
16 | CC1CCCN1C(=O)c1cc(F)c(F)cc1-c1ccc2nc(N)nc(C(=O)N3Cc4ccccc4C3)c2c1 (stereo not shown) [Compound A79, {2-Amino-6-[4,5-difluoro-2-(2-methylpyrrolidine-1-carbonyl)phenyl]quinazolin-4-yl}-(1,3-dihydroisoindol-2-yl)methanone] | 10 to 1000
17 | Nc1nc(C(=O)N2Cc3ccccc3C2)c2cc(-c3ccccc3C(=O)N3CCC(O)C3)ccc2n1 (stereo not shown) [Compound A36] | 10 to 1000
18 | Nc1nc(C(=O)N2Cc3ccccc3C2)c2cc(-c3cc(F)c(F)cc3C(=O)N3CCC3)ccc2n1 [Compound A80, {2-Amino-6-[2-(azetidine-1-carbonyl)-4,5-difluorophenyl]quinazolin-4-yl}-(1,3-dihydroisoindol-2-yl)methanone] | 10 to 1000
19 | CCN(CC)C(=O)c1cc(OC)c(OC)cc1-c1ccc2nc(N)nc(C(=O)N3Cc4ccccc4C3)c2c1 [Compound A88, 2-[2-Amino-4-(1,3-dihydroisoindole-2-carbonyl)quinazolin-6-yl]-N,N-diethyl-4,5-dimethoxybenzamide] | 1000 to 10000

Further lines, results first:

Row | IC50 [nM] | SMILES
20 | 10 to 1000 | Nc1nc(C(=O)N2Cc3ccccc3C2)c2cc(-c3ccccc3S(=O)(=O)N3CCC(N)C3)ccc2n1 (stereo not shown) [Compound A33, {2-amino-6-[2-(3-aminopyrrolidine-1-sulfonyl)phenyl]quinazolin-4-yl}-(1,3-dihydroisoindol-2-yl)methanone]
21 | 10 to 1000 | Nc1nc(C(=O)N2Cc3ccccc3C2)c2cc(-c3ccccc3C(=O)N3CCC(N)C3)ccc2n1 (stereo not shown) [Compound A43, {2-amino-6-[2-(3-aminopyrrolidine-1-carbonyl)phenyl]quinazolin-4-yl}-(1,3-dihydroisoindol-2-yl)methanone]
22 | 10 to 1000 | Nc1nc(C(=O)N2Cc3ccccc3C2)c2cc(-c3ccccc3S(=O)(=O)N3CCC(F)(F)C3)ccc2n1 [Compound A53, {2-Amino-6-[2-(3,3-difluoropyrrolidine-1-sulfonyl)phenyl]quinazolin-4-yl}-(1,3-dihydroisoindol-2-yl)methanone]
23 | 10 to 1000 | C[C@@H]1CCCN1S(=O)(=O)c1ccccc1-c1ccc2nc(N)nc(C(=O)N3Cc4ccccc4C3)c2c1 [Compound A66, {2-Amino-6-[2-((R)-2-methylpyrrolidine-1-sulfonyl)phenyl]quinazolin-4-yl}-(1,3-dihydroisoindol-2-yl)methanone]
24 | 10 to 1000 | Nc1nc(C(=O)N2Cc3ccccc3C2)c2cc(-c3ccccc3S(N)(=O)=O)ccc2n1 [Compound A2, 2-[2-amino-4-(1,3-dihydroisoindole-2-carbonyl)quinazolin-6-yl]-benzenesulfonamide]
25 | 10 to 1000 | Nc1nc(C(=O)N2Cc3ccccc3C2)c2cc(-c3ccccc3S(=O)(=O)N3CCC(O)C3)ccc2n1 (stereo not shown) [Compound A31]
26 | 10 to 1000 | NCC(=O)OC1CCN(S(=O)(=O)c2ccccc2-c2ccc3nc(N)nc(C(=O)N4Cc5ccccc5C4)c3c2)CC1 [Compound A10, 1-{2-[2-amino-4-(1,3-dihydroisoindole-2-carbonyl)quinazolin-6-yl]benzenesulfonyl}piperidin-4-yl aminoacetate]
27 | 10 to 1000 | Nc1nc(C(=O)N2Cc3ccccc3C2)c2cc(-c3ccccc3S(=O)(=O)N3CC(N)C3)ccc2n1 [Compound A29, {2-amino-6-[2-(3-aminoazetidine-1-sulfonyl)phenyl]quinazolin-4-yl}-(1,3-dihydroisoindol-2-yl)methanone]
28 | 10 to 1000 | Nc1nc(C(=O)N2Cc3ccccc3C2)c2cc(-c3ccccc3S(=O)(=O)N3CCCC3)ccc2n1 [Compound A32, {2-Amino-6-[2-(pyrrolidine-1-sulfonyl)phenyl]quinazolin-4-yl}-(1,3-dihydroisoindol-2-yl)methanone]
